Results from PubChem BioAssay (NCI).
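96-well plates; 48 h exposure; 5 concentrations. Endpoints by linear interpolation between flanking doses. Not reached: highest tested concentration assigned. Abbreviation: GI50, concentration required for 50% inhibition of growth. TGI: total growth inhibition.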

How the values were obtained:
Assay in all cases: inhibition of tumour cell growth, NCI panel, 48 h
NCI-H23 lung = test system: NCI-H23 lung
OVCAR-4 ovarian = test system: OVCAR-4 ovarian
NCI-H522 lung = test system: NCI-H522 lung
A549 NSCLC = test system: A549 NSCLC
SN12C renal = test system: SN12C renal
SW-620 colon = test system: SW-620 colon
CCRF-CEM leukemia = test system: CCRF-CEM leukemia
RPMI-8226 leukemia = test system: RPMI-8226 leukemia
HL-60(TB) leukemia = test system: HL-60(TB) leukemia
U251 CNS = test system: U251 CNS

Row | Structure (SMILES) | GI50 (NCI-H23 lung) | TGI (NCI-H23 lung) | GI50 (OVCAR-4 ovarian) | TGI (OVCAR-4 ovarian) | GI50 (NCI-H522 lung) | TGI (NCI-H522 lung) | GI50 (A549 NSCLC) | TGI (A549 NSCLC) | GI50 (SN12C renal) | TGI (SN12C renal) | GI50 (SW-620 colon) | TGI (SW-620 colon) | GI50 (CCRF-CEM leukemia) | TGI (CCRF-CEM leukemia) | GI50 (RPMI-8226 leukemia) | TGI (RPMI-8226 leukemia) | GI50 (HL-60(TB) leukemia) | TGI (HL-60(TB) leukemia) | GI50 (U251 CNS) | TGI (U251 CNS)
1 | Nc1nc(OCc2cc(Br)cs2)c2[nH]cnc2n1 | 21.8 µM | > 100 µM | 24.9 µM | > 100 µM | 26.8 µM | > 100 µM | 32.9 µM | > 100 µM | 29.6 µM | > 100 µM | 40.2 µM | > 100 µM | 37.5 µM | > 100 µM | 19.1 µM | > 100 µM | 27.9 µM | > 100 µM | 28.8 µM | > 100 µM
2 | O=CNc1ncn[nH]1 | – | > 100 µM | – | > 100 µM | – | > 100 µM | – | > 100 µM | – | > 100 µM | – | > 100 µM | – | > 100 µM | – | > 100 µM | – | > 100 µM | – | > 100 µM
3 | Cc1ccc(C(SCC(N)C(=O)O)(c2ccc(C)cc2)c2ccc(C)cc2)cc1 (stereo not given) | 4.87 µM | > 43.2 µM | 11.3 µM | > 48.3 µM | 1.01 µM | 16.7 µM | 2.62 µM | 16.8 µM | 2.74 µM | 18.4 µM | 1.64 µM | 15.8 µM | 3.08 µM | 55.4 µM | 2.27 µM | 12.5 µM | 2.53 µM | 8.09 µM | 1.71 µM | 16.8 µM
4 | CC(=O)c1ccc(OCC(O)CO)cc1 (stereo not given) | – | > 100 µM | – | > 100 µM | – | > 100 µM | – | > 100 µM | – | > 100 µM | – | 29.4 µM | – | > 100 µM | – | > 100 µM | – | > 100 µM | – | > 100 µM
5 | O=C(c1ccccc1)N1C2CCC1C(C(F)(F)F)=C2C(F)(F)F | – | > 100 µM | – | > 100 µM | – | > 100 µM | – | > 100 µM | – | > 100 µM | – | > 100 µM | – | > 100 µM | – | > 100 µM | – | > 100 µM | – | > 100 µM
6 | O=[N+]([O-])c1ccccc1N/N=C\c1c[nH]c2ccccc12 | 16.8 µM | > 100 µM | 17.8 µM | > 100 µM | 11.6 µM | > 100 µM | 20.2 µM | > 100 µM | 10.2 µM | > 100 µM | 17.8 µM | > 100 µM | 5.1 µM | > 100 µM | 47.4 µM | > 100 µM | 5.56 µM | > 100 µM | 10.6 µM | 24.2 µM
7 | CC(C)(C)C(=O)OCOP(=O)(OCOC(=O)C(C)(C)C)C1CC(O)N(O)C1=O (stereo not given) | 3.67 µM | 25.3 µM | 17.5 µM | > 100 µM | 2.95 µM | 14.4 µM | 30.7 µM | > 100 µM | 2.87 µM | 9.56 µM | 4.46 µM | > 100 µM | 0.777 µM | 14.3 µM | 2.88 µM | 14.6 µM | 3.44 µM | 22.1 µM | 3.58 µM | 44.1 µM
